Laboratory results published in paper PMC4476799, “Englerin A Agonizes the TRPC4/C5 Cation Channels to Inhibit Tumor Cell Line Proliferation” (PLoS ONE, 2015).
Where two headings read alike, the source gives them in different places.

Tested on: cancer cell lines from the cancer cell line encyclopedia (CCLE)
Assay: Cell line profiling (CLiP) proliferation experiment
Type: cell-based
Settings: Homo sapiens; for EC50: read-out: Inflection Point; for IC50: read-out: Crossing Point
Experimental: Compound profiling experiment and data analysis was performed as previously described. Data was imported and plotted using the Tibco Spotfire DXP application. Lines were categorized as sensitive, intermediate and refractory as follows: Amax<-40 & Inflection Point <2 ~ Sensitive, Amax>-20 & Inflection Point >10 ~ Refractory, all else were called Intermediate. Cancer Cell line HG-U133 Plus 2 data was processed and normalized as described. […] Five sets of refractory cell lines were generated from the pool of refractory cell lines trying to match the lineage composition of the set of sensitive cell lines. The limma package was used as previously described to perform the statistical comparison.

[1] = KYSE-150, KYSE-150 (oesophagus)
[2] = L-363, L-363 (haematopoietic_and_lymphoid_tissue)
[3] = LN-18, LN-18 (central_nervous_system)
[4] = LN-229, LN-229 (central_nervous_system)
[5] = LS180, LS 180 (large_intestine)
[6] = LS-411N, LS411N (large_intestine)
[7] = MC116, MC116 (haematopoietic_and_lymphoid_tissue)
[8] = MIA PaCa-2, MIA PaCa-2 (pancreas)

Question: How did the EC50 (KARPAS-299, KARPAS-299) turn out when `CC(C)[C@@]12C[C@@H](O)[C@@](C)(O1)[C@@H]1CC[C@@H](C)[C@H]1[C@@H]2OC(=O)/C=C/c1ccccc1` [Englerin B] was run?
Answer: 12.7 µM

Question: What about the IC50 (KARPAS-422, KARPAS-422) of the same compound?
Answer: 11.4 µM

Question: What about the EC50 (KARPAS-422, KARPAS-422) of the same compound?
Answer: 11.4 µM

Question: And the IC50 (KARPAS-422, KARPAS-422 cells)?
Answer: 11.4 µM

Question: And the EC50 (KARPAS-422, KARPAS-422 cells)?
Answer: 11.4 µM

Question: What about the EC50 (KATO III, cell line KATO III) of the same compound?
Answer: 18.8 µM

Question: And the IC50 (KATO III)?
Answer: 19.4 µM

Question: And the EC50 (KATO III)?
Answer: 18.8 µM

Question: And the IC50 (KCL-22, KCL-22)?
Answer: 13.5 µM

Question: And the EC50 (KCL-22, KCL-22)?
Answer: 12.9 µM

Question: And the IC50 (KCL-22, KCL-22 cells)?
Answer: 13.5 µM

Question: What about the EC50 (KCL-22, KCL-22 cells) of the same compound?
Answer: 12.9 µM

Question: What about the IC50 (KLE) of the same compound?
Answer: > 30 µM

Question: What about the EC50 (KLE) of the same compound?
Answer: 11.1 µM

Question: What about the IC50 (KM12, KM12) of the same compound?
Answer: > 30 µM

Question: And the IC50 (KM12, KM12 cells)?
Answer: > 30 µM

Question: What about the IC50 (KMS-11, KMS-11) of the same compound?
Answer: 13.5 µM

Question: And the EC50 (KMS-11, KMS-11)?
Answer: 13.2 µM

Question: What about the EC50 (KMS-11, KMS-11 cells) of the same compound?
Answer: 13.2 µM

Question: What about the IC50 (KMS-12-BM, KMS-12-BM cells) of the same compound?
Answer: 24.8 µM

Question: What about the EC50 (KMS-12-BM, KMS-12-BM cells) of the same compound?
Answer: 24.8 µM

Question: What about the IC50 (KMS-12-BM) of the same compound?
Answer: 24.8 µM

Question: What about the EC50 (KMS-12-BM) of the same compound?
Answer: 24.8 µM

Question: What about the IC50 (KNS-62, KNS-62) of the same compound?
Answer: > 30 µM

Question: And the IC50 (KNS-62, KNS-62 cells)?
Answer: > 30 µM

Question: What about the IC50 (KU812, KU812) of the same compound?
Answer: 8.76 µM

Question: And the EC50 (KU812, KU812)?
Answer: 13.2 µM

Question: And the EC50 (KU812, KU812 cells)?
Answer: 13.2 µM

Question: What about the IC50 (KYSE-30, KYSE-30 (oesophagus)) of the same compound?
Answer: > 30 µM

Question: And the IC50 (KYSE-70, KYSE-70 (oesophagus))?
Answer: 28.2 µM

Question: What about the IC50 [1] of the same compound?
Answer: > 30 µM

Question: What about the EC50 [1] of the same compound?
Answer: 12 µM

Question: And the IC50 (KYSE-270, KYSE-270 (oesophagus))?
Answer: > 30 µM

Question: What about the IC50 (KYSE-270, cell line KYSE-270) of the same compound?
Answer: > 30 µM

Question: And the IC50 (KYSE-410, KYSE-410 (oesophagus))?
Answer: 21.7 µM

Question: And the IC50 (KYSE-450, KYSE-450 (oesophagus))?
Answer: > 30 µM

Question: What about the IC50 (KYSE-450, KYSE-450 cells) of the same compound?
Answer: > 30 µM

Question: And the IC50 (KYSE-510, KYSE-510 (oesophagus))?
Answer: > 30 µM

Question: What about the IC50 (KYSE-520, KYSE-520 (oesophagus)) of the same compound?
Answer: 22.9 µM

Question: What about the IC50 [2] of the same compound?
Answer: 18.7 µM

Question: And the EC50 [2]?
Answer: 27.5 µM

Question: What about the IC50 (LAMA-84, LAMA-84 (haematopoietic_and_lymphoid_tissue)) of the same compound?
Answer: > 30 µM

Question: What about the IC50 (LAMA-84, LAMA-84 cells) of the same compound?
Answer: > 30 µM

Question: What about the IC50 (LCLC-97TM1, LCLC-97TM1 (lung)) of the same compound?
Answer: > 30 µM

Question: What about the IC50 (LCLC-97TM1, LCLC-97TM1 cells) of the same compound?
Answer: > 30 µM

Question: And the IC50 (LCLC-103H, LCLC-103H (lung))?
Answer: > 30 µM

Question: And the IC50 (LCLC-103H, LCLC-103H cells)?
Answer: > 30 µM

Question: And the IC50 [3]?
Answer: 13.9 µM

Question: And the EC50 [3]?
Answer: 13.3 µM

Question: And the EC50 (LN-18, LN-18 cells)?
Answer: 13.3 µM

Question: What about the IC50 [4] of the same compound?
Answer: > 30 µM

Question: What about the EC50 [4] of the same compound?
Answer: 22.1 µM

Question: And the IC50 (LOX IMVI, LOX IMVI (skin))?
Answer: > 30 µM

Question: What about the IC50 (LOX IMVI, LOX IMVI cells) of the same compound?
Answer: > 30 µM

Question: What about the IC50 (LP-1, LP-1 cells) of the same compound?
Answer: 18.7 µM

Question: And the EC50 (LP-1, LP-1 cells)?
Answer: 18.7 µM

Question: And the IC50 [5]?
Answer: > 30 µM

Question: What about the EC50 [5] of the same compound?
Answer: 9.77 µM

Question: And the IC50 (LS180, LS 180 cells)?
Answer: > 30 µM

Question: And the EC50 (LS180, LS 180 cells)?
Answer: 9.77 µM

Question: And the IC50 [6]?
Answer: 16.3 µM

Question: And the EC50 [6]?
Answer: 16.3 µM

Question: And the IC50 (LXF-289, LXF-289 (lung))?
Answer: > 30 µM

Question: And the IC50 (LoVo, LoVo (large_intestine))?
Answer: > 30 µM

Question: What about the EC50 (LoVo, LoVo (large_intestine)) of the same compound?
Answer: 12.6 µM

Question: And the IC50 (Lu-65, LU65 (lung))?
Answer: > 30 µM

Question: And the IC50 (Lu-99, LU99 (lung))?
Answer: 27.2 µM

Question: What about the EC50 (Lu-99, LU99 (lung)) of the same compound?
Answer: 12.9 µM

Question: What about the IC50 [7] of the same compound?
Answer: 14.1 µM

Question: What about the EC50 [7] of the same compound?
Answer: 14.1 µM

Question: What about the IC50 (MCF7, MCF7 (breast)) of the same compound?
Answer: 13.7 µM

Question: And the EC50 (MCF7, MCF7 (breast))?
Answer: 10.8 µM

Question: What about the IC50 (MCF7, MCF7 cells) of the same compound?
Answer: 13.7 µM

Question: What about the EC50 (MCF7, MCF7 cells) of the same compound?
Answer: 10.8 µM

Question: And the IC50 (MDA-MB-175-VII, MDA-MB-175-VII (breast))?
Answer: > 30 µM

Question: What about the IC50 (MDA-MB-231, MDA-MB-231 (breast)) of the same compound?
Answer: > 30 µM

Question: And the IC50 (MDA-MB-231, cell line MDA-MB-231 (breast, NS))?
Answer: > 30 µM

Question: What about the IC50 (MDA-MB-415, MDA-MB-415 (breast)) of the same compound?
Answer: > 30 µM

Question: What about the IC50 (MDA-MB-436, MDA-MB-436 (breast)) of the same compound?
Answer: > 30 µM

Question: And the IC50 (MDA-MB-453, MDA-MB-453 (breast))?
Answer: 18.2 µM

Question: What about the IC50 (MDA-MB-468, MDA-MB-468 (breast)) of the same compound?
Answer: > 30 µM

Question: And the IC50 (MDA-MB-468, MDA-MB-468 cells)?
Answer: > 30 µM

Question: And the IC50 (MEC1, MEC-1 (haematopoietic_and_lymphoid_tissue))?
Answer: 22.2 µM

Question: And the IC50 (MEG-01, MEG-01 (haematopoietic_and_lymphoid_tissue))?
Answer: 29.2 µM

Question: And the IC50 (MEL-JUSO, MEL-JUSO (skin))?
Answer: > 30 µM

Question: And the IC50 (MEL-JUSO, cell line MEL-JUSO (skin))?
Answer: > 30 µM

Question: What about the IC50 (MFE-296, cell line MFE-296 (endometrium)) of the same compound?
Answer: 23.1 µM

Question: What about the IC50 (MG-63, cell line MG-63 (bone)) of the same compound?
Answer: > 30 µM

Question: What about the IC50 (MG-63, cell line MG-63) of the same compound?
Answer: > 30 µM

Question: What about the IC50 [8] of the same compound?
Answer: > 30 µM

Question: And the EC50 [8]?
Answer: 11.3 µM

Question: And the IC50 (MIA PaCa-2, cell line MIA PaCa-2 (pancreas))?
Answer: > 30 µM
